According to paper PMC11129182, “Development of Inhibitors, Probes, and PROTAC Provides a Complete Toolbox to Study PARK7 in the Living Cell” (Journal of Medicinal Chemistry, 2024):
Read-outs that look alike come from different tables or passages of the source. Values belong to the molecule of their own block, whether it stands above or below them.

Experiments:
[1] = biological target: reactive cysteine sites of other proteins in A549 cells (Homo sapiens, UniProt P40222); conditions: 4 h, P40222_C87 Alpha-taxilin
Chain of reactive cysteine sites of other proteins in A549 cells (Homo sapiens, UniProt P40222) (P40222 whole entry): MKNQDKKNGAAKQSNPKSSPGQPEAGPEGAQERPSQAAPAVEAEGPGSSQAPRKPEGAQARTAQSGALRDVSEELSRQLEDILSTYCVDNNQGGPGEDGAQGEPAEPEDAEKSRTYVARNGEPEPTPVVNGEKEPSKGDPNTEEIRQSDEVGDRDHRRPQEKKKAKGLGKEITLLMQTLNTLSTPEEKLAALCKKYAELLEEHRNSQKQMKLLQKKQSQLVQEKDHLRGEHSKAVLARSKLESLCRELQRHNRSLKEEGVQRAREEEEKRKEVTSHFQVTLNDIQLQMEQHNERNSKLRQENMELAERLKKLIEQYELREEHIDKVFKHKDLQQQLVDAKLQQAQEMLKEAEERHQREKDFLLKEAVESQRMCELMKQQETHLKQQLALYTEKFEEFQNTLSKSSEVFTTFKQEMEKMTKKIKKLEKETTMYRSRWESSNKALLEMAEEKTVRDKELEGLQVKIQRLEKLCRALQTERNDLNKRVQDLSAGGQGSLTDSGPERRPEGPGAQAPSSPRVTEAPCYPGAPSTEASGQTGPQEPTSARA
Excerpt: (§1) Further, the samples were digested with tosylsulfonyl phenylalanyl chloromethyl ketone (TPCK)-treated trypsin and endoGluC to increase the coverage of protein sequences, especially the PARK7 peptide containing Cys106 residue. Peptides generated by digestion from replicates of each sample were labeled using TMT16-plex to perform tandem mass tag (TMT)-based quantitative proteomics profiling. Following the TMT labeling, all samples were pooled and the peptides conjugated to the DBIA probe were enriched by streptavidin beads and analyzed by LC-MS/MS (Figure 3A). […] All cysteines were represented with the shortest peptide by using the average CR values of all the peptides with the same modified cysteine from the same protein in the same condition.[16],[27],[28]
(§2) A549 cells were seeded into 10 cm plates in 10 mL of media. […] The cells were then washed two times with cold PBS (1 mL per 10 cm plate) and collected by scraping them with a cell scraper. Cells were lysed by sonication in ice-cold PBS and centrifuged at 15,000 rpm for 2 min to remove cell debris. The BCA Gold protein assay (Thermo Fisher Scientific) was performed to determine protein concentration. Each sample (100 μg) was labeled with 500 μM DBIA probe for 1 h in the dark at room temperature (RT). Excess DBIA and disulfide bonds were quenched and reduced, respectively, using 5 mM dithiothreitol (DTT) for 30 min in the dark at RT. Reduced disulfide bonds were alkylated using 20 mM iodoacetamide for 30 min in the dark at RT. […] Digested peptides were labeled with TMTpro16-plex reagents (Thermo Fisher Scientific) in a 1:4 ratio by mass (peptides/TMT reagents) for 1 h at RT. Excess TMT reagent was quenched with 5 μL 6% hydroxylamine for 15 min at RT. All samples were then pooled and lyophilized.
(§3) Nonspecific binding peptides were washed away using the following procedure: 3 × 1 mL of PBS pH 7.4, 2 × 1 mL of PBS with 0.1% SDS pH 7.4, and 3 × 1 mL of HPLC-grade water. DBIA probe-containing peptides were eluted using 700 μL of 50% acetonitrile in 0.1% TFA, lyophilized using a Speedvac, and desalted using a handmade mini-SPE column (10% sorbent material of a Waters, OASIS 1 cm^3 HLB 30 mg cartridge). Column was equilibrated with 200 μL of 90% acetonitrile and 3 × 200 μL of 10 mM NH4HCO3 pH 8.4. The dried sample was dissolved in 200 μL of 10 mM NH4HCO3 pH 8.4, loaded onto the column, washed 3x with 200 μL of 10 mM NH4HCO3 pH 8.4, and eluted into 3 fractions with 150 μL of 10, 20, and 50% acetonitrile (in 10 mM NH4HCO3). Samples were then lyophilized.
(§4) 2.2.04 (www.matrixscience.com) for protein identification. Mascot searches were done with 10 ppm and 0.02 Da deviation for the precursor and fragment mass, respectively, and the enzymes trypsin and EndoGluC was specified, up to three missed cleavages were allowed. Methionine oxidation, acetyl (protein N-term), and DBIA on Cys were set as a variable modification. Carbamidomethyl on Cys and TMTpro on Lys and N-term were set as a fixed modification. Peptides with an FDR <1% were accepted. Peptides were only retained, if they were quantified and if there was exactly one DBIA modification on the peptide. The values for each TMT channel were normalized to the average of the values for the DMSO samples for the same peptide, and these values were named CR. For each peptide, the first entry of the Master Protein Accessions column was chosen as the Master Protein Accession, and the residue number of the cysteine modified by DBIA within the entire protein sequence was determined. Using this information, each peptide was assigned an identifier consisting of the Master Protein Accession and the residue number of the modified cysteine to assign each peptide to the respective modified cysteine residue. Within each replicate, CR values for all peptides with the same identifier (and thus the same modified cysteine residue) were combined by averaging and only the shortest Annotated Sequence was kept as the final Annotated Sequence.

[2] = biological target: reactive cysteine sites of other proteins in A549 cells (Homo sapiens, UniProt P04080); conditions: 4 h, P04080_C3 Cystatin-B
Chain of reactive cysteine sites of other proteins in A549 cells (Homo sapiens, UniProt P04080) (P04080 whole entry): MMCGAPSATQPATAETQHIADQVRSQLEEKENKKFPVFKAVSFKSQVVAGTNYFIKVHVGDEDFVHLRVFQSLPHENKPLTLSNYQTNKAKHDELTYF
Excerpt: as §1, §2, §3, §4

[3] = biological target: reactive cysteine sites of other proteins in A549 cells (Homo sapiens, UniProt Q13085); conditions: 4 h, Q13085_C1297 Acetyl-CoA carboxylase 1
Excerpt: as §1, §2, §3, §4

[4] = biological target: T1, reactive cysteine sites of other proteins in A549 cells (Homo sapiens, UniProt O60664); conditions: 4 h, O60664_C39 Perilipin-3
T1 sequence (O60664 1-434): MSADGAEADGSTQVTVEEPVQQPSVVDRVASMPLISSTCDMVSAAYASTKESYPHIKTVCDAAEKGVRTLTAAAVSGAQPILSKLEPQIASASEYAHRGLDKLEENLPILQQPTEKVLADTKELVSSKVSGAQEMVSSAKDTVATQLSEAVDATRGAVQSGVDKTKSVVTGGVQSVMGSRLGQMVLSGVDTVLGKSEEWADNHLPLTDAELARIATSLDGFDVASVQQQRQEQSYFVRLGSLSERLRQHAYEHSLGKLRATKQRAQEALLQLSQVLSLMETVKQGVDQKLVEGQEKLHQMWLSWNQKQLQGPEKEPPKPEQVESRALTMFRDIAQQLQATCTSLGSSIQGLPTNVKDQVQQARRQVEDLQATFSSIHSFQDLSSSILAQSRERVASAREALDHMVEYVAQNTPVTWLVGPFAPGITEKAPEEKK
Excerpt: as §1, §2, §3, §4

[5] = test system: A549 cells; test: Cell viability assay (CellTiter-Blue); assay type: cell-based, human; conditions: up to 5 μM, 72 h incubation
Protocol: 5 × 10^3 A549 cells were seeded into 96-well plates. The following day, the indicated final concentrations of JYQ-164 and JYQ-173 were added to the cells, and DMSO was used as a control. Inhibitors were renewed at 36 h, and cells were incubated with them an additional 36 h. Cell viability was measured using the CellTiter-Blue viability assay (Promega). Relative survival was normalized to the DMSO-treated sample and corrected for background signal. page 8: Figure S6. Cytotoxicity assay for JYQ-164 and JYQ-173 in A549 cells. ( A) PARK7 engagement of JYQ -164 and JYQ-173 in A459 cells. A549 cells were incubated with […] The reactions were stopped by addition of NuPAGE™ LDS sample buffer (4x) , followed by cell lysis, SDS-PAGE, fluorescence scanning, and immunoblott in g against PARK7 and β-actin. β-actin was used as a loading control. (B) A549 cells were incubated with indicated concentration of JYQ-164 (left panel) or JYQ-173 (right panel) for 72 h where the inhibitors were renewed after 36 h. Cell viability was measured using the CellTiter-Blue assay. Relative viability was normalized to untreated control and corrected for background signal. S8 (1 picture or pasted object on this page, not shown here)

[6] = biological target: T2, PARK7 (Homo sapiens, UniProt Q99497); test: TMT-based global proteomic profiling in A549 cells, PARK7; assay type: cell-based; set-up: incubating A549 cells with 5 μM JYQ-194 for 8 h, along with 5 μM JYQ-173 and DMSO as a control; endogenous in cells; host or cells: A549; conditions: 5 μM, 8 h
T2 sequence (Q99497 1-189): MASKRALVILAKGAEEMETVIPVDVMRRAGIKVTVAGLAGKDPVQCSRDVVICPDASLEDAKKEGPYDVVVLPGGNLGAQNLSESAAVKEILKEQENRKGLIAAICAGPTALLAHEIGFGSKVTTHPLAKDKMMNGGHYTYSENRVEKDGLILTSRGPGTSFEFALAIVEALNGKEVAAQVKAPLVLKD
Protocol: A549 cells were seeded into 10 cm plates in 10 mL of media. […] Cells were lysed using a 5% SDS lysis buffer (100 mM Tris-HCl, pH 7.6) and were incubated at 95 °C for 4 min. Protein determination was performed using the Pierce BCA Gold protein assay. 100 μg of protein of each sample was reduced and alkylated, and excess iodoacetamide was quenched using 5 mM TCEP, 15 mM iodoacetamide, and 10 mM DTT, respectively. The protein was pelleted down using chloroform/methanol precipitation, and the resulting pellets were resolubilized in 40 mM HEPES pH 8.4. […] The Pierce BCA Gold protein assay was used to determine the peptide concentration. The peptides were labeled with TMTpro Label Reagents in a 1:4 ratio by mass (peptides/TMT reagents) for 1 h at RT. Five μL of 6% hydroxylamine was added to quench excess TMT reagent and incubated for 15 min at RT. Samples were pooled and lyophilized. The sample was subsequently fractionated on an Agilent 1200 series HPLC system (Agilent Technologies). 75 μg of the pooled sample was dissolved in solvent A (10 mM NH4HCO3, pH 8.4), injected onto, and eluted from an Agilent Eclipse Plus C18 2.1 × 150 mm 3.5 μm column (Agilent Technologies). The gradient was run from 2 to 90% solvent B (10 mM NH4HCO3, pH 8.4 final concentration, 20/80 water/acetonitrile v/v) in 30 min at a flow rate of 200 μL/min. […]

[7] = biological target: T2, PARK7; test: Activity evaluation of PROTACs in cells (PARK7 degradation, immunoblot); set-up: Dmax: dose or concentration left out as unconfirmed
Protocol: A549 cells were seeded into 6-well plates. The next day after seeding, cells were incubated with the indicated concentrations of indicated PROTACs for 8 h. The cells were then washed with PBS and collected. The collected cell pellets were lysed with Tris-triton buffer as described above. The prepared cell lysate of each sample (10 μL) was added 5 μL 3× LDS + 5% β-mercaptoethanol, and boiled for 10 min.

[8] = test system: other proteins of A549 cells; test: TMT-based global proteomic profiling in A549 cells, other proteins; assay type: cell-based, Homo sapiens; conditions: 8 h; for Abundance Ratio: (compound) / (1 DMSO) / Abundance Ratio: log2 (compound) / (1 DMSO): A549, 5 μM
Protocol: A549 cells were seeded into 10 cm plates in 10 mL of media. […] Cells were lysed using a 5% SDS lysis buffer (100 mM Tris-HCl, pH 7.6) and were incubated at 95 °C for 4 min. Protein determination was performed using the Pierce BCA Gold protein assay. 100 μg of protein of each sample was reduced and alkylated, and excess iodoacetamide was quenched using 5 mM TCEP, 15 mM iodoacetamide, and 10 mM DTT, respectively. The protein was pelleted down using chloroform/methanol precipitation, and the resulting pellets were resolubilized in 40 mM HEPES pH 8.4. […] The Pierce BCA Gold protein assay was used to determine the peptide concentration. The peptides were labeled with TMTpro Label Reagents in a 1:4 ratio by mass (peptides/TMT reagents) for 1 h at RT. Five μL of 6% hydroxylamine was added to quench excess TMT reagent and incubated for 15 min at RT. Samples were pooled and lyophilized. The sample was subsequently fractionated on an Agilent 1200 series HPLC system (Agilent Technologies). 75 μg of the pooled sample was dissolved in solvent A (10 mM NH4HCO3, pH 8.4), injected onto, and eluted from an Agilent Eclipse Plus C18 2.1 × 150 mm 3.5 μm column (Agilent Technologies). The gradient was run from 2 to 90% solvent B (10 mM NH4HCO3, pH 8.4 final concentration, 20/80 water/acetonitrile v/v) in 30 min at a flow rate of 200 μL/min. Twelve fractions were made; every 30 s a fraction was collected in a vial, and the eluate of the next 30 s was collected in the next vial and so on until it loops back to the first vial (5 loops of 6 min each). Afterward, the samples were lyophilized.
2.2.07 (www.matrixscience.com) for protein identification. Mascot searches were with 10 ppm and 0.02 Da deviation for precursor and fragment mass, respectively. Enzyme specificity was set to trypsin. Up to two missed cleavages were allowed. Methionine oxidation and acetyl on protein N-terminus were set as variable modifications. Carbamidomethyl on Cys and TMTpro on Lys and N-terminus were set as fixed modifications. Protein FDR of 1% was set. Normalization was on total peptide amount. The values for each TMT channel were normalized to the average of the values for the DMSO samples for the same peptide, and these values were named FC. The log2 FC values of all replicates for the same master protein were averaged to give the “Average log2 FC”. A one-sample t test was performed against the null hypothesis of log2 FC = 0, and the resulting −log10p values were reported for each protein. The volcano plot was plotted using GraphPad Prism v.9.01.

Compound: N#CN1CC[C@@H](C(=O)Nc2nc3c(s2)CN(C(=O)c2cccc(S(=O)(=O)N4CCOCC4)c2)CC3)C1 [Compound 340, (R)-1-Cyano-N-(5-(3-(morpholinosulfonyl)benzoyl)-4,5,6,7-tetrahydrothiazolo[5,4-c]pyridin-2-yl)pyrrolidine-3-carboxamide]
- Average log2 CR (DMSO/inhibitor) ([1]; A549, 0.5 µM): 0.6134
- Average log2 CR (DMSO/inhibitor) ([1]; A549, 5 µM): 0.7033
- Average log2 CR (DMSO/inhibitor) ([2]; A549, 0.5 µM): 1.056
- Average log2 CR (DMSO/inhibitor) ([2]; A549, 5 µM): 0.758
- Average log2 CR (DMSO/inhibitor) ([3]; A549, 0.5 µM): 0.8087
- Average log2 CR (DMSO/inhibitor) ([3]; A549, 5 µM): 0.7839
- Average log2 CR (DMSO/inhibitor) ([4]; A549, 0.5 µM): 0.5943
- Average log2 CR (DMSO/inhibitor) ([4]; A549, 5 µM): 0.5954
- cytotoxicity [5]: did not show any cytotoxicity

- PARK7 protein level (total proteome profiling) [6]: induced the degradation of PARK7
- Dmax ([7]; A549): ~80%
- time from which PARK7 degradation is observed ([7]; A549 cells, 5 μM): 4 h
- time by which maximal PARK7 degradation is reached ([7]; A549 cells, 5 μM, remained until 24 h): 8 h
- concentration at which PARK7 degradation starts ([7]; A549 cells, 0.1 to 5 μM, 8 h): 0.1 µM
Compound: N#CN1CC[C@@H](C(=O)Nc2nc3c(s2)CN(C(=O)c2cc(-n4cc(COCCOCCNc5cccc6c5C(=O)N(C5CCC(=O)NC5=O)C6=O)nn4)ccc2F)CC3)C1 (stereo partly shown) [JYQ-194]
- PARK7 degradation in other tumor cell lines ([7]; Hela, H1299, and MCF7 cells, 8 h): PARK7 degradation was observed in all these cells in a dose-dependent manner
- Abundance Ratio: (compound) / (1 DMSO) ([8]; ESYT2 (A0FGR8)): 1.074
- Abundance Ratio: log2 (compound) / (1 DMSO) ([8]; ESYT2 (A0FGR8)): 0.1157
- Abundance Ratio: (compound) / (1 DMSO) ([8]; RBM47 (A0AV96)): 1.045
- Abundance Ratio: log2 (compound) / (1 DMSO) ([8]; RBM47 (A0AV96)): 0.07722
- Abundance Ratio: (compound) / (1 DMSO) ([8]; SMIM26 (A0A096LP01)): 1.081
- Abundance Ratio: log2 (compound) / (1 DMSO) ([8]; SMIM26 (A0A096LP01)): 0.1302
- Abundance Ratio: (compound) / (1 DMSO) ([8]; TTC26 (A0AVF1)): 0.975
- Abundance Ratio: log2 (compound) / (1 DMSO) ([8]; TTC26 (A0AVF1)): -0.08647
- Abundance Ratio: (compound) / (1 DMSO) ([8]; UBA6 (A0AVT1)): 0.964
- Abundance Ratio: log2 (compound) / (1 DMSO) ([8]; UBA6 (A0AVT1)): -0.04606
- DOP1B protein level (total proteome profiling) ([8]; A549 cells, 5 μM): decreased
- HINT2 protein level (total proteome profiling) ([8]; A549 cells, 5 μM): partly decreased
- TM7SF3 protein level (total proteome profiling) ([8]; A549 cells, 5 μM): decreased
